Experiment [1] has as its system other receptors tested including VEGF receptors. Description: cellular autophosphorylation assay, transfected Chinese hamster ovary cells.
Procedure: (§1) In vivo activity requires drugs to enter cells and therefore agents are tested in cellular autophosphorylation assays, using Chinese hamster ovary cells transfected with one of several RTK genes.
Experiment [2] has as its system other RTKs including VEGF receptors. Briefly: standard tyrosine kinase assay, other RTKs. The class given is biochemical.
The next experiment relates to PDGF receptors. Briefly: cellular autophosphorylation assay, transfected Chinese hamster ovary cells. Format: cell-based.
The target of the next experiment is c-Kit (Homo sapiens, UniProt P10721). The conditions noted are these: transfected Chinese hamster ovary cells.
Sequence of c-Kit (P10721 26-976): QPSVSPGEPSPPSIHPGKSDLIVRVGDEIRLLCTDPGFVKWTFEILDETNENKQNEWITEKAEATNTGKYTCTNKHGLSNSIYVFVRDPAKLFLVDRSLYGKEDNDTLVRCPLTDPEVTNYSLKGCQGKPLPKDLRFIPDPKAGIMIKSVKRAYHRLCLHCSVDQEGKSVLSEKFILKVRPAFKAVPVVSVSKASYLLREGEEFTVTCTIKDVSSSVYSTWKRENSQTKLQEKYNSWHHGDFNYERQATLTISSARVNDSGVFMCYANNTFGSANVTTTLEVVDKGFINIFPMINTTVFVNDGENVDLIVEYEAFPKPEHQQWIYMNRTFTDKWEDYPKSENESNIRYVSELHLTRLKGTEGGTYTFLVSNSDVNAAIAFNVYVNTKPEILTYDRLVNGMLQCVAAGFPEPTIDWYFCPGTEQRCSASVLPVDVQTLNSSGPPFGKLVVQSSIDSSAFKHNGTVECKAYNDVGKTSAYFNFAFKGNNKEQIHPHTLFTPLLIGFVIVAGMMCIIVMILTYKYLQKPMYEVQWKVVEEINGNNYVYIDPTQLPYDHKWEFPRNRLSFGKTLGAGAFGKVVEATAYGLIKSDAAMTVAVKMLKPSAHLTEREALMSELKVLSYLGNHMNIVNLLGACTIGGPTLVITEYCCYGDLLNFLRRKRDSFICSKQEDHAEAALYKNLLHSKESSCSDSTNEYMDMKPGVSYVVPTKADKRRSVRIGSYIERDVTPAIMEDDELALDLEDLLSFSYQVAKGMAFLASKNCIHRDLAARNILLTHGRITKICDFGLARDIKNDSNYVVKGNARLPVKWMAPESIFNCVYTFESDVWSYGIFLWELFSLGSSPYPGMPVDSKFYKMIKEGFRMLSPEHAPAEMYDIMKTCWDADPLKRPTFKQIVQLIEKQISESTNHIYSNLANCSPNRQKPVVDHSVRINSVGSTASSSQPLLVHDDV
The test system of the next experiment is C57BL/6 mice. Description: VEGF-induced BRB breakdown measured with [3H]mannitol as tracer after topical administration. Format: in vivo. The settings on record: suspension topically in one eye twice a day for 3 days prior to intraocular injection of VEGF.
A further experiment addresses c-erbB2 (Homo sapiens, UniProt P04626). Briefly: cellular autophosphorylation assay, transfected Chinese hamster ovary cells.
The next experiment addresses insulin receptor (Homo sapiens, UniProt P06213). Described as above.
Another experiment concerns the target T1, Flt-1 (Homo sapiens, UniProt P17948).
T1 construct: GST-fusion proteins of the kinase domains of several tyrosine kinase receptors; GST
T1 sequence (P17948 827-1158 limits assumed): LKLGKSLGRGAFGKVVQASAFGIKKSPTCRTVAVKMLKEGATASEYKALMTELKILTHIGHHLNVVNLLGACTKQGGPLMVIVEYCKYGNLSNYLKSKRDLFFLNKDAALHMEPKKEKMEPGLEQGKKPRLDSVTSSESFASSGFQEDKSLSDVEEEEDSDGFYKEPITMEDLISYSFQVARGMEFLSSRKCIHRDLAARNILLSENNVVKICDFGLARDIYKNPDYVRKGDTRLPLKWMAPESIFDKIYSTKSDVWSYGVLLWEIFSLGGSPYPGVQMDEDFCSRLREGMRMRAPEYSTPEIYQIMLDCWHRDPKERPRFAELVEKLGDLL
Briefly: standard tyrosine kinase assay: phosphorylation of poly(GluTyr) by GST-fusion kinase domain. The class given is biochemical.

In another experiment the test system is VEGF receptors. Briefly: cellular autophosphorylation assay, transfected Chinese hamster ovary cells.

Each structure is given as a SMILES string.

Sequence of insulin receptor (P06213 28-1382, species assumed): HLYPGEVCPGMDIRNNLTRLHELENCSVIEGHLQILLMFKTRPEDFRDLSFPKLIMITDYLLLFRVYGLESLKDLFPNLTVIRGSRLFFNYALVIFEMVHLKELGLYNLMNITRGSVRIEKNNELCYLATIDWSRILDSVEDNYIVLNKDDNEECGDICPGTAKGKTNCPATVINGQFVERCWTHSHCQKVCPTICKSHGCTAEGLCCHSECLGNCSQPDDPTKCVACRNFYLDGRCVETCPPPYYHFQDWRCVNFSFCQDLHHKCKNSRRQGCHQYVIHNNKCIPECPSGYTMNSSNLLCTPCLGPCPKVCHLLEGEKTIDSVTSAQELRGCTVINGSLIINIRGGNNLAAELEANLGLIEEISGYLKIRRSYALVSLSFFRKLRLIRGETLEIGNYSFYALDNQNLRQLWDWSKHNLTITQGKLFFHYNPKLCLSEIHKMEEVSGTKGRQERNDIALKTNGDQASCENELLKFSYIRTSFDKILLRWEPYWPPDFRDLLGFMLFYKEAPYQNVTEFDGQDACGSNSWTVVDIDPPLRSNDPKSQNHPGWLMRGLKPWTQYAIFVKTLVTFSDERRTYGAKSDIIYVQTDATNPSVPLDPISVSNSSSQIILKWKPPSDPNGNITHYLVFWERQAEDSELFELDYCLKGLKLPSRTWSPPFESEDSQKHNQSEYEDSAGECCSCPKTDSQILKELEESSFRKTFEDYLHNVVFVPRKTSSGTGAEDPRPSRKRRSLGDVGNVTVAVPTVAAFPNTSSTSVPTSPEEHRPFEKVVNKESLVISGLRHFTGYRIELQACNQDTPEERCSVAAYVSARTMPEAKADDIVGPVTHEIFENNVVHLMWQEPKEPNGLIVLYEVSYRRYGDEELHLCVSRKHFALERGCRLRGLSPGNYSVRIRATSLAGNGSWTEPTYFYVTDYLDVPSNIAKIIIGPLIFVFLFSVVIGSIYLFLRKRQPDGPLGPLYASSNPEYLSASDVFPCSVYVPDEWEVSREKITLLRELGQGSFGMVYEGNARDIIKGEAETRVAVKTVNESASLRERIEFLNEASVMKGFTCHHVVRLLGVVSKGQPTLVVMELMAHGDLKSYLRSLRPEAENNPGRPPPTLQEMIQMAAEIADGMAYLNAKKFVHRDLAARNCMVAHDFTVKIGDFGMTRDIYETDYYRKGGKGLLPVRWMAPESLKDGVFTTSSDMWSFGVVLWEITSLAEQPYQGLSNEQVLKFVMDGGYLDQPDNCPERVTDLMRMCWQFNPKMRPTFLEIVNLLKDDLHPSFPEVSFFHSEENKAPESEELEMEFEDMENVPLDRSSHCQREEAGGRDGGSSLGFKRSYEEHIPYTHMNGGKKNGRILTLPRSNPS
Sequence of c-erbB2 (P04626 23-1255): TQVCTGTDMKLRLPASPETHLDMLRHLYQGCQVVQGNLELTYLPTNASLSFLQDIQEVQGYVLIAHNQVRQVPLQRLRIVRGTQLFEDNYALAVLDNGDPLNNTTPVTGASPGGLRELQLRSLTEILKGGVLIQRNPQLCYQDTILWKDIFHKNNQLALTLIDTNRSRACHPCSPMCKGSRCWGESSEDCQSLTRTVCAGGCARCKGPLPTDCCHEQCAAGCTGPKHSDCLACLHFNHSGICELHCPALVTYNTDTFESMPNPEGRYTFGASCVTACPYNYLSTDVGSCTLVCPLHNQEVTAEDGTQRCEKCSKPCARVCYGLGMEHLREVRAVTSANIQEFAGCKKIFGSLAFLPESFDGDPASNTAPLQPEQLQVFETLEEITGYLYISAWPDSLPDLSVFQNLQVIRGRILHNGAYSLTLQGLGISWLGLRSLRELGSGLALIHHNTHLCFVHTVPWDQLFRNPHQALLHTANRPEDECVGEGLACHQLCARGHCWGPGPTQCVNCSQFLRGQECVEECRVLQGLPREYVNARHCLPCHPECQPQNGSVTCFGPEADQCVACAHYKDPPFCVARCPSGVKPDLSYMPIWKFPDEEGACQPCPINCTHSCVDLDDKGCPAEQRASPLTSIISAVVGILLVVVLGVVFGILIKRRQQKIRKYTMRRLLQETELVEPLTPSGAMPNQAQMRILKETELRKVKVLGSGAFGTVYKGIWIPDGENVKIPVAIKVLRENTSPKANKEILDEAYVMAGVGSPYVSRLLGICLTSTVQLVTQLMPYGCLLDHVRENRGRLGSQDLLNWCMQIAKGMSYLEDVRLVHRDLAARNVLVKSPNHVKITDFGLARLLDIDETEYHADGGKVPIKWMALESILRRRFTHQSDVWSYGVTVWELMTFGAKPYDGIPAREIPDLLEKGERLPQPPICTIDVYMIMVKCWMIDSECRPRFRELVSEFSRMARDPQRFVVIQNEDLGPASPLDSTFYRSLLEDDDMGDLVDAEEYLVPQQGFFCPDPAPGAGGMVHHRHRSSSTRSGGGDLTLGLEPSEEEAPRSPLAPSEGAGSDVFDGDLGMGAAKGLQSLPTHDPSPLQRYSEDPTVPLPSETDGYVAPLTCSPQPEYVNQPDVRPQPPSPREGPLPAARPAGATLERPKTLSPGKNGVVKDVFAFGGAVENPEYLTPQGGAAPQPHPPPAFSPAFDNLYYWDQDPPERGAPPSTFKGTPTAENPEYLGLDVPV
Procedure for C57BL/6 mice: Intraocular injections are performed with a Harvard pump microinjection apparatus and pulled glass micropipets. Each micropipet is calibrated to deliver 1 μL of vehicle upon depression of a foot switch. Mice are anesthetized with 25 mg/kg of ketamine and 4 mg/kg of xylazine, pupils are dilated with 1% tropicamide. Under a dissecting microscope, the sharpened tip of a micropipet is passed through the sclera just behind the limbus into the vitreous cavity, and the foot switch is depressed and 1 μL of 10^−6 M human VEGF (R&D Systems, Minneapolis, Minn.) is injected.
Six or 24 hours after intraocular injections, mice are given an intraperitoneal injection of 1 μCi/g body weight of [^3H]mannitol (New England Nuclear, Boston, Mass.). After one hour, mice are sacrificed and eyes are removed. The cornea and lens are removed and the entire retina is carefully dissected from the eyecup and placed within pre-weighed scintillation vials. […] All liquid is removed from the vials and remaining droplets are allowed to evaporate over 20 minutes. The vials are weighed and the tissue weights are recorded. One mL of NCSII solubilizing solution (Amersham, Chicago, Ill.) is added to each vial and the vials are incubated overnight in a 50° C. water bath. The solubilized tissue is brought to RT and decolorized with 20% benzoyl peroxide in toluene in a 50° C. water bath. […]
Procedure for PDGF receptors: as §1
Procedure for c-erbB2: as §1
Procedure for insulin receptor: as §1

In the case of `Cc1ccc(NC(=O)c2ccccc2)cc1Nc1nccc(-c2cccnc2)n1` [CGP 53 716], in [1], the “inhibition of autophosphorylation of other receptors tested including VEGF receptors” value is given as “poor inhibitors”. Further, the “inhibitory activity of other RTKs including VEGF receptors” value in experiment [2] was “little or no inhibitory activity”. In the experiment with PDGF receptors, the “inhibition of autophosphorylation of PDGF receptors” value (“inhibition … of PDGF receptors” below) is “potent inhibitors”.

Take `Cc1ccc(NC(=O)c2ccc(CN3CCN(C)CC3)cc2)cc1Nc1nccc(-c2cccnc2)n1` [CGP 57 148]: the “inhibition of autophosphorylation of other receptors tested including VEGF receptors” value in experiment [1] is given as “poor inhibitors”. The “inhibitory activity of other RTKs including VEGF receptors” value in experiment [2] is “little or no inhibitory activity”. Further, in the experiment with PDGF receptors, the “inhibition … of PDGF receptors” value is “potent inhibitors”.

For the compound `Clc1ccc(Nc2nnc(Cc3ccncc3)c3ccccc23)cc1` [PTK 787], at c-Kit, the “inhibition of autophosphorylation of c-Kit” value is given as “inhibits autophosphorylation”. For the same compound, the “RRLR compared to contralateral eyes in the same mice” value in the experiment on C57BL/6 mice is given as “not a significant difference”. In addition, the “inhibition of autophosphorylation of c-erbB2” value on c-erbB2 was “poor inhibitor”. The “inhibition of autophosphorylation of insulin receptor” value against insulin receptor is “poor inhibitor”. Further, in the experiment on PDGF receptors, the “inhibition … of PDGF receptors” value was “inhibits autophosphorylation”. For the same compound, the “inhibition of phosphorylation by the kinase domain of human VEGF receptor 1” value against Flt-1 is “good inhibitor”. In the experiment on VEGF receptors, the “inhibition of autophosphorylation of VEGF receptors” value was “inhibits autophosphorylation”.

For the origin of these results see US20040102444A1, “Method for delivering drugs to the retina” (priority 2002, published 2004).
